# Publication PMC7754465, “Multiparameter Kinetic Analysis for Covalent Fragment Optimization by Using Quantitative Irreversible Tethering (qIT)” (Chembiochem, 2020)
# Target: T1, Cdk2(ES) (Homo sapiens, UniProt P24941, C177A/F80C)
# T1 construct: GST (N, cleaved yes); made in house; host or cells: E. coli Tuner(DE3)
# Assay: concentration-dependent qIT with hyperbolic regression (Ki, kinact)
# Format: binding
# Details: roughly linear dependency up to 500 μM
# Description: Next we sought to carry out comprehensive kinetic analysis of the covalent binding to better understand the covSAR trends. Accordingly, the concentration dependency for the rate of reaction between Cdk2(ES) and key acrylamides 1, 6, 9 and 11 were determined using qIT (Figure 7c). To maintain pseudo‐first‐order reaction kinetics and stay within the solubility limits of the fragments, ligands were titrated from 25 to 500 μM. […] Indeed, comparing the binding conformations of the merged (9 and 11) and parent (1 and 6) fragments, we observe a subtle shift in the position of the core scaffolds and the orientation of the acrylamide link that likely explains the jump in potency that resulted from fragment merging. Overall, comparing acrylamides 9 and 11, we observe in a 3.7‐fold increase in k inact/K i and a 4.3‐fold increase in REF, and the consistency between these two orthogonal metrics of covalent fragment potency is encouraging for future applications of qIT to covalent fragment optimization.
# H. Intact-protein mass spectrometry
# Protein-mass data were obtained on a Waters micromass LC-TOF mass spectrometer in positive ion mode using electrospray ionization. Samples were chromatographed using an Acquity UPLC protein BEH C4 column (2.1 mm × 50 mm, 2.7 µm) with a flow rate of 30 µL/min. The injection volume was 5 µL of protein solution (5 µM) in 30 mM ammonium bicarbonate buffer con-taining 0.5% formic acid and 20% MeOH. The gradient used was 100% mobile phase A (0.1% formic acid in water/MeOH (19:1)) ramping linearly to 90% mobile phase B (0.1% formic acid in MeOH) over 5 minutes. The spectra were acquired from 500 to 2500 Da and deconvolution was performed with MassLynx (Waters), using the maximum entropy algorithm, over a mass range of […] with a mass step of 0.75. […]
# Cdk2(WT) or Cdk2(ES) (1 mg) was sequentially incubated with aliquots of CAK1 (3 × 0.05 mg) at r.t. for 4 hours at a time in 1.5 mL of a 30 mM Tris/HCl buffer (pH 7.5) containing 10 mM MgCl2, 10 mM ATP and 3 mM DTT. As CAK1 appeared to be-come rapidly inactivated in the presence of pCdk2, three repetitions were required to drive the reaction to completion. The resulting solution was incubated with 50 µL of glutathione-Sepharose beads and filtered to remove remaining CAK1.
# Kinase assays were performed by coupling the conversion of ATP into ADP to the oxidation of NADH (Abs = 340 nm) into NAD+, mediated by lactate dehydrogenase (LDH) and pyruvate kinase (PK). WT, mutant or ligand-conjugated pCdk2 (12.5 or 50 nM) was preincubated with Cyclin A2 (20 nM) in a buffer containing 50 mM Tris/HCl, 10 mM MgCl2, 5 mM DTT, 1 mM phosphoenolpyruvate, 0.24 mM NADH, 10 U mL-1 LDH, 14 U mL-1 PK and 5% DMSO at 37 °C for 30 minutes. Reactions were initiated by addition of 0.5 mM ATP and 0.24 mM substrate peptide (PKTPKKAKKL) and the absorbance at 340 nm was moni-tored for two hours. Assays were conducted at 37 °C and carried out in clear 384-well plates (Nunc) using a SpectraMax i3x plate reader (Molecular Devices) with a final volume of 20 µL in each well. After plotting Abs 340 against time, enzyme velocity was measured from the gradient during the linear phase of product accumulation.
# Q. Concentration dependent qIT
# The rate of reaction (kobs) for the reaction between each acrylamide (25, 50, 125, 250 and 500 µM) with Cdk2(ES) (5 µM) was determined us qIT (see D. Rate Determination by qIT) in duplicate. The average kobs was plotted against acrylamide concen-tration and hyperbolic regression analysis performed using Prism 8.0 software (GraphPad) to derive kinact and Ki.
structure (smiles),measurement,value
C=CC(=O)N1CCCc2cc(C(=O)OC)ccc21 [compound 1],Ki,> 1000 µM
C=CC(=O)N1CCN(CC)c2ccccc21 [compound 6],Ki,> 1000 µM
